Reference: patent publication US4093722A, “Sulfonylimidazolidone substituted cephalosporins, antibacterial compositions containing them, and methods of combatting bacteria employing them” (Bayer Aktiengesellschaft, priority 1974, dated 1978)

What was measured:
[1] = test system: Pseudomonas aeruginosa; assay: Antibiotic activity of electropherogram spot; assay type: cell-based
[2] = test system: Escherichia coli; assay: Antibiotic activity of electropherogram spot; assay type: cell-based
[3] = test system: B. subtilis; assay: Antibiotic activity of electropherogram spot; assay type: cell-based
[4] = Antibiotic activity of electropherogram spot (germ not stated); assay type: cell-based
[5] = test system: Streptococcus pyogenes W.; assay: In vitro turbidity test (Muller-Hinton broth); assay type: cell-based; conditions: 100 μg/ml, 24 hours incubation
[6] = test system: Enterococcus sp.; assay: In vitro turbidity test (Muller-Hinton broth); assay type: cell-based; conditions: 100 μg/ml, 24 hours incubation
[7] = test system: Proteus, indole negative and indole positive sp.; assay: In vitro turbidity test (Muller-Hinton broth); assay type: cell-based; conditions: 100 μg/ml, 24 hours incubation
[8] = test system: Haemophilis influenzae; assay: In vitro turbidity test (Muller-Hinton broth); assay type: cell-based; conditions: 100 μg/ml, 24 hours incubation
[9] = test system: Staphylococcus aureus 133; assay: In vitro turbidity test (Muller-Hinton broth); assay type: cell-based; conditions: 100 μg/ml, 24 hours incubation
[10] = test system: Neisseria catarrhalis sp.; assay: In vitro turbidity test (Muller-Hinton broth); assay type: cell-based; conditions: 100 μg/ml, 24 hours incubation
[11] = test system: Corynebacterium diphteriae gravis; assay: In vitro turbidity test (Muller-Hinton broth); assay type: cell-based; conditions: 100 μg/ml, 24 hours incubation
[12] = test system: Bordetella bronchiseptica; assay: In vitro turbidity test (Muller-Hinton broth); assay type: cell-based; conditions: 100 μg/ml, 24 hours incubation
[13] = test system: Corynebacterium pyogenes M.; assay: In vitro turbidity test (Muller-Hinton broth); assay type: cell-based; conditions: 100 μg/ml, 24 hours incubation
[14] = test system: Salmonella sp.; assay: In vitro turbidity test (Muller-Hinton broth); assay type: cell-based; conditions: 100 μg/ml, 24 hours incubation
[15] = test system: Brucella sp.; assay type: cell-based; conditions: 100 μg/ml, 24 hours incubation
[16] = test system: Escherichia coli BE; assay: In vitro turbidity test (Muller-Hinton broth); assay type: cell-based; conditions: 100 μg/ml, 24 hours incubation
[17] = test system: Klebsiella pneumoniae; assay: In vitro turbidity test (Muller-Hinton broth); assay type: cell-based; conditions: 100 μg/ml, 24 hours incubation
[18] = test system: Providencia; assay: In vitro turbidity test (Muller-Hinton broth); assay type: cell-based; conditions: 100 μg/ml, 24 hours incubation
[19] = test system: Diplococcus pneumoniae sp.; assay: In vitro turbidity test (Muller-Hinton broth); assay type: cell-based; conditions: 100 μg/ml, 24 hours incubation
[20] = test system: Lactobacillus sp.; assay: In vitro turbidity test (Muller-Hinton broth); assay type: cell-based; conditions: 100 μg/ml, 24 hours incubation
[21] = test system: Pasteurella pseudotuberculosis; assay type: cell-based; conditions: 100 μg/ml, 24 hours incubation
[22] = test system: Shigella sp.; assay: In vitro turbidity test (Muller-Hinton broth); assay type: cell-based; conditions: 100 μg/ml, 24 hours incubation
[23] = test system: Enterobacter aerogenes sp.; assay: In vitro turbidity test (Muller-Hinton broth); assay type: cell-based; conditions: 100 μg/ml, 24 hours incubation
[24] = test system: Serratia marcescens; assay: In vitro turbidity test (Muller-Hinton broth); assay type: cell-based; conditions: 100 μg/ml, 24 hours incubation
[25] = test system: Staphylococcus aureus 133; assay: Animal experiments with white mice (intraperitoneal infection); assay type: in vivo, white mice of strain CF1 infected with Staphylococcus aureus; conditions: Staphylococcus aureus, 133, sc; white mice CF1, subcutaneous, 1 administration 30 minutes after infection (1 × dose); 50% survive after 24 hours
Protocol: (§1) The white mice of strain CF1 were infected intraperitoneally with the species of bacteria indicated.
(§2) Determination of the ED50 after 24 hours
(§3) Therapy: 1 administration 30 minutes after infection.
(§4) The ED50 is the dose at which 50% of the infected animals still survive after 24 hours.

[26] = test system: Escherichia coli C 165; assay: as above; assay type: in vivo, white mice of strain CF1 infected with Escherichia coli; conditions: C165, sc, white mice CF1, subcutaneous, 1 administration 30 minutes after infection (1 × dose), 50% survive after 24 hours
Protocol: as §1, §2, §3, §4

[27] = test system: Klebsiella; assay: as above; assay type: in vivo, white mice of strain CF1 infected with Klebsiella; conditions: sc, white mice CF1, subcutaneous, 1 administration 30 minutes after infection (1 × dose), 50% survive after 24 hours
Protocol: as §1, §2, §3, §4

[28] = test system: bacteria from the genus Pseudomonades; conditions: known art; cited from earlier work

SMILES: CC(=O)OCC1=C(C(=O)[O-])N2C(=O)C(NC(=O)[C@H](NC(=O)N3CCNC3=O)c3ccccc3)[C@H]2SC1.[Na+] (stereo partly drawn) [Example 1, sodium 7-{D-α-[(2-oxo-imidazolidin-1-yl)-carbonylamino]-phenylacetamido}-3-acetoxymethyl-ceph-3-em-4-carboxylate]
- antibiotic activity of the electropherogram spot [1]: only one spot with antibiotic activity
- antibiotic activity of the electropherogram spot [2]: only one spot with antibiotic activity
- antibiotic activity of the electropherogram spot [3]: only one spot with antibiotic activity

SMILES: CC1=C(C(=O)O)N2C(=O)C(NC(=O)[C@H](NC(=O)N3CCNC3=O)c3ccccc3)[C@H]2SC1 (stereo partly drawn) [Example 2, 7-{D-α-[(2-Oxo-imidazolidin-1-yl)-carbonylamino]-phenylacetamido}-3-methyl-ceph-3-em-4-carboxylic acid]
- antibiotic activity of the electropherogram spot [4]: only one spot with antibiotic activity

SMILES: CC(=O)OCC1=C(C(=O)[O-])N2C(=O)C(NC(=O)[C@H](NC(=O)N3CCN(C)C3=O)c3ccccc3)[C@H]2SC1.[Na+] (stereo partly drawn) [Example 3, sodium 7-{D-α-[(3-methyl-2-oxo-imidazolidin-1-yl)-carbonylamino]-phenylacetamido}-3-acetoxymethyl-ceph-3-em-4-carboxylate]
- freedom from turbidity [5]: free from turbidity
- freedom from turbidity [6]: free from turbidity
- freedom from turbidity [7]: free from turbidity
- freedom from turbidity [8]: free from turbidity
- freedom from turbidity [9]: free from turbidity
- freedom from turbidity [10]: free from turbidity
- freedom from turbidity [11]: free from turbidity
- freedom from turbidity [12]: free from turbidity
- freedom from turbidity [13]: free from turbidity
- freedom from turbidity [14]: free from turbidity
- freedom from turbidity [15]: free from turbidity
- freedom from turbidity [16]: free from turbidity
- freedom from turbidity [17]: free from turbidity
- freedom from turbidity [18]: free from turbidity
- freedom from turbidity [19]: free from turbidity
- freedom from turbidity [20]: free from turbidity
- freedom from turbidity [21]: free from turbidity
- freedom from turbidity [22]: free from turbidity
- freedom from turbidity [23]: free from turbidity
- freedom from turbidity [24]: free from turbidity

SMILES: CC(=O)OCC1=C(C(=O)[O-])N2C(=O)C(NC(=O)[C@H](NC(=O)N3CCN(S(C)(=O)=O)C3=O)c3ccccc3)[C@H]2SC1.[Na+] (stereo partly drawn) [Example 6, Sodium 7-{D-α-[(2-oxo-3-mesyl-imidazolidin-1-yl)-carbonylamino]-phenylacetamido}-3-acetoxymethyl-ceph-3-em-4-carboxylate]
- freedom from turbidity [5]: free from turbidity
- freedom from turbidity [6]: free from turbidity
- freedom from turbidity [7]: free from turbidity
- freedom from turbidity [8]: free from turbidity
- freedom from turbidity [9]: free from turbidity
- freedom from turbidity [10]: free from turbidity
- freedom from turbidity [11]: free from turbidity
- freedom from turbidity [12]: free from turbidity
- ED50 [25]: 10 mg/kg
- antibiotic activity of the electropherogram spot [4]: only shows one spot with antibiotic activity
- freedom from turbidity [13]: free from turbidity
- ED50 [26]: 200 mg/kg
- freedom from turbidity [14]: free from turbidity
- freedom from turbidity [15]: free from turbidity
- freedom from turbidity [16]: free from turbidity
- ED50 [27]: 150 mg/kg
- freedom from turbidity [17]: free from turbidity
- freedom from turbidity [18]: free from turbidity
- freedom from turbidity [19]: free from turbidity
- freedom from turbidity [20]: free from turbidity
- freedom from turbidity [21]: free from turbidity
- freedom from turbidity [22]: free from turbidity
- freedom from turbidity [23]: free from turbidity
- freedom from turbidity [24]: free from turbidity

SMILES: CC(=O)OCC1=C(C(=O)[O-])N2C(=O)C(NC(=O)[C@H](NC(=O)N3CCN(S(=O)(=O)c4ccccc4)C3=O)c3ccccc3)[C@H]2SC1.[Na+] (stereo partly drawn) [Example 7, Sodium 7-{D-α-[(2-oxo-3-phenylsulphonyl-imidazolidin-1-yl)-carbonylamino]-phenylacetamido}-3-acetoxymethyl-ceph-3-em-4-carboxylate]
- freedom from turbidity [5]: free from turbidity
- freedom from turbidity [6]: free from turbidity
- freedom from turbidity [7]: free from turbidity
- freedom from turbidity [8]: free from turbidity
- freedom from turbidity [9]: free from turbidity
- freedom from turbidity [10]: free from turbidity
- freedom from turbidity [11]: free from turbidity
- freedom from turbidity [12]: free from turbidity
- freedom from turbidity [13]: free from turbidity
- freedom from turbidity [14]: free from turbidity
- freedom from turbidity [15]: free from turbidity
- freedom from turbidity [16]: free from turbidity
- freedom from turbidity [17]: free from turbidity
- freedom from turbidity [18]: free from turbidity
- freedom from turbidity [19]: free from turbidity
- freedom from turbidity [20]: free from turbidity
- freedom from turbidity [21]: free from turbidity
- freedom from turbidity [22]: free from turbidity
- freedom from turbidity [23]: free from turbidity
- freedom from turbidity [24]: free from turbidity

SMILES: CC(=O)OCC1=C(C(=O)O)N2C(=O)C(NC(=O)C(N)c3ccccc3)[C@H]2SC1 (stereo partly drawn) [cephaloglycine, 7-(α-amino-phenylacetamido)-3-acetoxymethyl-ceph-3-em-4-carboxylic acid]
- activity against infections caused by Pseudomonades [28]: not active
